From ChEMBL document CHEMBL5096167, “Recent advances in development of hetero-bivalent kinase inhibitors” (Eur J Med Chem, 2021)
Each block holds one compound with its values, some of them ahead of it. Where a SMILES comes first, the peptide text is derived from it. [ ]: non-standard residue; d: D form. The star is where a group is joined. ξ: configuration not given here. X2 = O=C(Cc1c(Br)c(Br)c(Br)c2[nH]nnc12)*; ξE = NC(CCC(=O)O)C(=O)O; ξS = NC(CO)C(=O)O

How the values were obtained:
[1] = target: Casein kinase 2 (Homo sapiens, UniProt P67870+P68400+P19784+Q8NEV1); assay: Inhibition of human CK2; format: protein assay
[2] = target: cAMP-dependent protein kinase catalytic subunit alpha (Homo sapiens, UniProt P17612); assay: Displacement of mAb(D38C6)-BTN from human recombinant PKAc alpha incubated for 15 mins by microplate reader assay
[3] = target: T1, Ephrin type-A receptor 3 (Homo sapiens, UniProt P29320); assay: Inhibition of EPHA3 (unknown origin) assessed as dissociation constant by ELISA-like binding assay
T1 sequence (P29320 whole entry): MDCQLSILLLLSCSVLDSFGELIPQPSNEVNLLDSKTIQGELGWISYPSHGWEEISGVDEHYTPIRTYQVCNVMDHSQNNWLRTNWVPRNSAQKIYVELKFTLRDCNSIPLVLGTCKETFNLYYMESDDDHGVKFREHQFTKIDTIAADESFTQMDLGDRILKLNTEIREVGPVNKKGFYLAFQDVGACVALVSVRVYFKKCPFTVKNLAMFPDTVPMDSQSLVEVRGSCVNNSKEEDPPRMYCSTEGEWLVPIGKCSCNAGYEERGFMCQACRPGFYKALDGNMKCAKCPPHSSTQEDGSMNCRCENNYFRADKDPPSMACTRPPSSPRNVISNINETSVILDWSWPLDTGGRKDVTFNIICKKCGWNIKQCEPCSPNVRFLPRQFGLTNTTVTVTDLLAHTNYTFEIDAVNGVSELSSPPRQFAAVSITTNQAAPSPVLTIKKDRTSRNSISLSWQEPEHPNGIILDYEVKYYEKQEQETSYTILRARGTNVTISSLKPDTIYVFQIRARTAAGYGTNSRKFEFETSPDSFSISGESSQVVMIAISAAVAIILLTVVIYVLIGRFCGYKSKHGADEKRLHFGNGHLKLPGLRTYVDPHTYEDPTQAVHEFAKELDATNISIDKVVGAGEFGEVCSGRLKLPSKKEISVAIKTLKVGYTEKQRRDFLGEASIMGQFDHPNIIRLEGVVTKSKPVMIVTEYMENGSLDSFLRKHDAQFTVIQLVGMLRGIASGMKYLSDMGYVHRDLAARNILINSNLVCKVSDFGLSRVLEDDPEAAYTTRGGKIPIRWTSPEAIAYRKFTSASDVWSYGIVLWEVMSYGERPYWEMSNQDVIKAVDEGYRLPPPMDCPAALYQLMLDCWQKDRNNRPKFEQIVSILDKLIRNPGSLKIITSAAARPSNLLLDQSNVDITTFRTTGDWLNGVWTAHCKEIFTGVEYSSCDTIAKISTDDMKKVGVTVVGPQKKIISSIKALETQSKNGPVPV

[4] = target: T2, Serine/threonine-protein kinase haspin (Homo sapiens, UniProt Q8TF76)
T2 sequence (Q8TF76 whole entry): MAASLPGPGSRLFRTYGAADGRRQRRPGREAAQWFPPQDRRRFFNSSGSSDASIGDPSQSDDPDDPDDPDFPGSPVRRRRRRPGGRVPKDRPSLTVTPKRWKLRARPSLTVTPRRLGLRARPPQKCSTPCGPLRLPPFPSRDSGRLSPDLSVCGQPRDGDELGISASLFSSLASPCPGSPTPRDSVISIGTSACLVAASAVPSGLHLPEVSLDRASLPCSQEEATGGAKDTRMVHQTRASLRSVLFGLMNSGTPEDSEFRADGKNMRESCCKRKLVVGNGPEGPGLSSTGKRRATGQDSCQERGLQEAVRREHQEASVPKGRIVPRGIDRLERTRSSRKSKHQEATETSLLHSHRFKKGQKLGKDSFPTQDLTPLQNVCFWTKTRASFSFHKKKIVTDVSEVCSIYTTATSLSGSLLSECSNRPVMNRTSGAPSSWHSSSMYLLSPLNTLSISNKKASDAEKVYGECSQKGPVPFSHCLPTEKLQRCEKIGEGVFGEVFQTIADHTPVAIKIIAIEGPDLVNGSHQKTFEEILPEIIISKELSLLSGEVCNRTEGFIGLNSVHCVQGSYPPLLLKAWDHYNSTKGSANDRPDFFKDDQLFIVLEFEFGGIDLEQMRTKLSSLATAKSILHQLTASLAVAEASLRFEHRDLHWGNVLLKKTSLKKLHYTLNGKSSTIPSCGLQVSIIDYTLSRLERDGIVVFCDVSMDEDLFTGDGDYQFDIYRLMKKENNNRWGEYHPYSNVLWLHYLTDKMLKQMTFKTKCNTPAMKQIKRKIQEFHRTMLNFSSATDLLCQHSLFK

[5] = target: T3, cAMP-dependent protein kinase (PKA) (Homo sapiens, UniProt P22694+P17612+P22612)
[6] = target: T2, Serine/threonine-protein kinase haspin; remark: listed apart in the source
[7] = Binding affinity to full length human recombinant PKAc assessed as dissociation constant
[8] = species on record: Homo sapiens
[9] = Binding affinity to PKAc (unknown origin) assessed as dissociation constant; set-up: species or system Homo sapiens
[10] = target: T3, cAMP-dependent protein kinase (PKA); assay: Binding affinity to PKA (unknown origin) assessed as dissociation constant; format: protein assay
[11] = Inhibition of AKR3 (unknown origin) assessed as dissociation constant; set-up: species or system Homo sapiens
[12] = target: Rho-associated protein kinase 2 (Homo sapiens, UniProt O75116); assay: Inhibition of ROCK2 (unknown origin) assessed as dissociation constant
[13] = species on record: Homo sapiens; assay: Selectivity ratio of Kd for inhibition of Untagged full length human PKAc alpha expressed in Escherichia coli BL21 DE3 cells assessed as dissociation constant to Kd for AKR3
[14] = species on record: Homo sapiens; assay: Selectivity ratio of Kd for inhibition of Untagged full length human PKAc alpha expressed in Escherichia coli BL21 DE3 cells assessed as dissociation constant to Kd for inhibition of ROCK2 (unknown origin)
[15] = target: Casein kinase II subunit alpha (Homo sapiens, UniProt P68400); assay: Inhibition of CK2alpha in human MIA PaCa-2 cells incubated for 5 hrs by western blot analysis; format: cell-based
Sequence of Casein kinase II subunit alpha (P68400 whole entry): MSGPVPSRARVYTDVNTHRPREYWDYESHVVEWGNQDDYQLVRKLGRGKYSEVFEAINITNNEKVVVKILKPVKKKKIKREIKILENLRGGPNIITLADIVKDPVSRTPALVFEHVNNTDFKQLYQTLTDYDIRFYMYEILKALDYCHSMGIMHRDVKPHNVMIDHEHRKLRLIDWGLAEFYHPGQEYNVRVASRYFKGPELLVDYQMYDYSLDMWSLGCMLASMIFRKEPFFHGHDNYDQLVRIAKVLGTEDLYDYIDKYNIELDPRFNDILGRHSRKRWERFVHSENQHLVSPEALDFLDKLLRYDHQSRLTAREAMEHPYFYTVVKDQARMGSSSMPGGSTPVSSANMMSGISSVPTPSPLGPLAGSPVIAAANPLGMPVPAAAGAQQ

Sequence of Rho-associated protein kinase 2 (O75116 whole entry): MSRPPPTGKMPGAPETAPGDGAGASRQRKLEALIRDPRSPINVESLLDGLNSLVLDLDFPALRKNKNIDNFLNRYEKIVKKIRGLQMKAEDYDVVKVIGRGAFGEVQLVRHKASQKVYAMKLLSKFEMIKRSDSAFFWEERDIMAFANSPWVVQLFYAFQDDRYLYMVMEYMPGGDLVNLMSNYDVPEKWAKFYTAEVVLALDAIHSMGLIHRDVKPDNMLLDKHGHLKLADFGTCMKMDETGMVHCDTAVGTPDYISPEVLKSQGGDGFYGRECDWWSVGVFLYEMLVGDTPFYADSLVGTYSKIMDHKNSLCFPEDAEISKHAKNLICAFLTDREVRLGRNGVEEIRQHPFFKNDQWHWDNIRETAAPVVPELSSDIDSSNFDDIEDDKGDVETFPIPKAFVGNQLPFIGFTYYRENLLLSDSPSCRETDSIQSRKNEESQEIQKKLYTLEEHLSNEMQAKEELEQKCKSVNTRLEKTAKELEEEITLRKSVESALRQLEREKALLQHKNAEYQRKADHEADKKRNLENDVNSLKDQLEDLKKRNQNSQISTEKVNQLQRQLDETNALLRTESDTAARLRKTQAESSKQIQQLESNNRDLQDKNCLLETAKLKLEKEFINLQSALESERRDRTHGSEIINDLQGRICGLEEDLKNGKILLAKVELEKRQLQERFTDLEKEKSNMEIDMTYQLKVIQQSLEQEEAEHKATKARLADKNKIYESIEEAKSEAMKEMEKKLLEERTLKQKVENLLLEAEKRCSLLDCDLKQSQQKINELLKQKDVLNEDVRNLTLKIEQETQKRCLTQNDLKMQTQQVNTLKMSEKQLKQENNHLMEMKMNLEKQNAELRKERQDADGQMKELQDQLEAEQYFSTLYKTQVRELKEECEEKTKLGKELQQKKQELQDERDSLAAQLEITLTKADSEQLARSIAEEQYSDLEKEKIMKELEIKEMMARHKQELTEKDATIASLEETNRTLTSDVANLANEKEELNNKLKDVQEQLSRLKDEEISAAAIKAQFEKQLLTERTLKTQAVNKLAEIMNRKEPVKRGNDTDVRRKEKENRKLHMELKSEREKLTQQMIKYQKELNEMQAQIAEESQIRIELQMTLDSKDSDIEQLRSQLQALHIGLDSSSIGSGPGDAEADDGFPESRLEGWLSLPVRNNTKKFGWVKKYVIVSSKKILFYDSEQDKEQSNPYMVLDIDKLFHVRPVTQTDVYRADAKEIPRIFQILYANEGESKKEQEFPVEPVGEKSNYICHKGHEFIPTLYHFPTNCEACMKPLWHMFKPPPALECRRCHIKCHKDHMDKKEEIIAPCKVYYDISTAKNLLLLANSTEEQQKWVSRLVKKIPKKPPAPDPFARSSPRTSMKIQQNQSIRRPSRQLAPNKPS

Compound: CC(C)(C)n1nc(-c2ccc(Cl)cc2)c2c(N)ncnc21
Kd [3]: 200000 nM

Compound: Nc1ncnc2c1ncn2[C@@H]1O[C@H](C(=O)O)[C@@H](O)[C@H]1O [5'-CARBOXY ADENOSINE]
Kd [4]: > 15000 nM

Compound: CC(C)[C@@H]1NC(=O)[C@H](CCCNC(=N)N)NC(=O)[C@H](Cc2ccccc2)NC(=O)[C@H]([C@@H](C)O)NC(=O)[C@@H](N)CSSC[C@@H](C(=O)NCC(N)=O)NC(=O)NC(=O)[C@H](Cc2ccccc2)NC1=O
IC50 [5]: 57000 nM

Compound: CO[C@@H]1[C@H](N(C)C(=O)CCC(=O)O)C[C@H]2O[C@]1(C)n1c3ccccc3c3c4c(c5c6ccccc6n2c5c31)C(=O)NC4
IC50 [5]: 159 nM

Compound: C[C@H](N)C(=O)N[C@@H](CCCNC(=N)N)C(=O)N[C@@H](CCCCNC(=O)C[C@@H](NC(=O)CCCCCNC(=O)[C@H]1O[C@@H](n2cnc3c(N)ncnc32)[C@H](O)[C@@H]1O)C(N)=O)C(=O)N[C@@H](CCCCN)C(=O)N[C@@H](CCC(N)=O)C(=O)N[C@H](C(=O)N[C@@H](C)C(=O)N[C@@H](CCCNC(=N)N)C(=O)N[C@@H](CCCNC(=N)N)C(=O)N[C@@H](CCCNC(=N)N)C(=O)N[C@@H](CCCNC(=N)N)C(=O)N[C@@H](CCCNC(=N)N)C(=O)N[C@@H](CCCNC(=N)N)C(N)=O)[C@H](C)O
Kd [6]: 0.42 nM
Kd [7]: 38 nM
Selectivity Index [8]: 90

Now from value to compound, other results behind:

IC50 [1]: 670 nM
Compound: NC(=O)C(CCC(=O)O)NC(=O)C(CCC(=O)O)NC(=O)C(CCC(=O)O)NC(=O)C(CO)NC(=O)C(CCC(=O)O)NC(=O)[C@@H](N)CCCCNC(=O)Cc1c(Br)c(Br)c(Br)c2[nH]nnc12 (some centres undefined) (H-K(X2)[ξE][ξS][ξE][ξE][ξE]-NH2)

Kd [2]: 0.042 nM
Compound: C[C@@H](NC(=O)CCCCCNC(=O)c1ccc(-c2ccnc(N)n2)[se]1)C(=O)N[C@H](CCCNC(=N)N)C(=O)N[C@H](CCCNC(=N)N)C(=O)N[C@H](CCCNC(=N)N)C(=O)N[C@H](CCCNC(=N)N)C(=O)N[C@H](CCCNC(=N)N)C(=O)N[C@H](CCCNC(=N)N)C(=O)N[C@H](CCCCN(C)c1ccc2c(-c3ccc(C(=O)[O-])cc3C(=O)O)c3ccc(=[N+](C)C)cc-3oc2c1)C(N)=O

Kd [6]: 170 nM
Kd [7]: 1600 nM
Selectivity Index [8]: 9
Compound: C[C@H](N)C(=O)N[C@@H](CCCNC(=N)N)C(=O)N[C@@H](CCCCNC(=O)C[C@@H](NC(=O)CCCCCNC(=O)[C@H]1O[C@@H](n2cnc3c(N)ncnc32)[C@H](O)[C@@H]1O)C(N)=O)C(=O)N[C@@H](CCCCN)C(=O)N[C@@H](CCC(=O)O)C(=O)N[C@H](C(=O)N[C@@H](C)C(N)=O)[C@H](C)O

Kd [9]: 0.003 nM
Kd [10]: 0.1 nM
Kd [11]: 310 nM
Kd [12]: 30 nM
Compound: N=C(N)NCCC[C@@H](NC(=O)CCCCCCCC(=O)N1CCN(C2N=CN=C3NC=CC32)CC1)C(=O)N[C@H](CCCNC(=N)N)C(=O)N[C@H](CCCNC(=N)N)C(=O)N[C@H](CCCNC(=N)N)C(=O)N[C@H](CCCNC(=N)N)C(=O)N[C@H](CCCNC(=N)N)C(=O)N[C@H](CCCCN)C(N)=O (some centres undefined)
Selectivity ratio [13]: 10
Ratio [14]: 10

IC50 [15]: 47 nM
Compound: CC(=O)OCOC(=O)CN(CC(=O)OCOC(C)=O)C(=O)CN(CC(=O)OCOC(C)=O)C(=O)CN(CC(=O)OCOC(C)=O)C(=O)CCCCCCCn1cnc2c(Br)c(Br)c(Br)c(Br)c21
